Measurements taken from patent publication EP2210881A1, “Derivatives of syringolin A” (Max-Planck-Gesellschaft zur Förderung der Wissenschaften …, priority 2009, dated 2010).
Where two headings read alike, the source gives them in different places.

Columns and labels:
Assay type in all cases: biochemical
[1] = target: T1, human 20S proteasome (Homo sapiens, UniProt P28072); test: Proteasome inhibition assay, caspase-like activity (substrate Z-LLE-AMC)
T1 construct: human erythrocyte 20S proteasomes (AK-740, Biomol); purchased Biomol AK-740; host or cells: human erythrocytes
Description: (§1) The Ki' value is defined as the apparent dissociation constant of the inhibitor. The Ki' value can be calculated from the IC50 value using the equation: Ki' = IC50 * Km / (S+Km), wherein S is the concentration of the substrate, and Km is the substrate concentration (in the absence of an inhibitor) at which the velocity of the reaction is half-maximal. The Ki' of an inhibitor for inhibition of a particular substrate (fixed Km) is constant.
As used herein, the term "caspase-like activity" refers to inhibition of the human 20S proteasome measured by the reduced proteolytic cleavage of the "caspase-lie" proteasome substrate Z-LLE-AMC.
(§2) Proteasome inhibition assays were performed with human erythrocyte 20S proteasomes (AK-740, Biomol) at 37 °C in 100 µL reaction volumes containing 2 µg ml^-1 20 proteasome and 100 µM Suc-LLVY-AMC as a substrate. Cleavage efficience in presence of varying inhibitor concentrations were followed by an MWGt Sirius HT plate reader (BIO-TEK instruments) equipped with 360 nm excitation and 460 nm emission filters. The obtained fluorescence values (RFU) were plotted versus time (t). The fluorescence data were fitted by the least squares method using SigmaPlot 10.0 software (Systat Software) to the equation f = f0 + Vst + [(vi - vs)/kobs][1-exp(-kobs*t)], where vi and vs are initial and final velocities, respectively, and kobs is the pseudo-first order associaten rate constant. Ki' values were then determined by plotting vi against inhibitor concentration [I]. Using SigmaPlot, the data were fitted with the hyperbolic equation vi = c + [v0/(Ki' + [I])] where v0 is the velocity of the control.
The inhibition of the caspase-like proteasome activity was performed in analogy to example 7 with using Z-LLE-AMC as a substrate instead of Suc-LLVY-AMC.

[2] = target: T2, human 20S proteasome (Homo sapiens, UniProt Q99436); test: Proteasome inhibition assay, tryptic activity (substrate Boc-LRR-AMC)
T2 construct: human erythrocyte 20S proteasomes (AK-740, Biomol); purchased Biomol AK-740; host or cells: human erythrocytes
Description: as §1
As used herein, the term "tryptic activity" refers to inhibition of the human 20S proteasome measured by the reduced proteolytic cleavage of the "tryptic" proteasome substrate Boc-LRR-AMC.
as §2
The inhibition of the tryptic proteasome activity was performed in analogy to example 7 with using Boc-LRR-AMC as a substrate instead of Suc-LLVY-AMC.

[3] = target: T3, human 20S proteasome (Homo sapiens, UniProt P28074); test: Proteasome inhibition assay, chymotryptic activity (substrate Suc-LLVY-AMC)
T3 construct: human erythrocyte 20S proteasomes (AK-740, Biomol); purchased Biomol AK-740; host or cells: human erythrocytes
Description: as §1
As used herein, the term "chymotryptic activity" refers to inhibition of the human 20S proteasome measured by the reduced proteolytic cleavage of the "chymotryptic" proteasome substrate Suc-LLVY-AMC.
as §2

COC(=O)[C@@H](NC(=O)N[C@H](C(=O)N[C@H]1/C=C/CCNC(=O)/C=C/[C@H](C(C)C)NC1=O)C(C)C)C(C)C [Compound 1, SylA-OCH3]
Ki [1]: > 50000 nM | Ki [2]: > 100 nM | Ki [3]: > 100 nM

CC(C)[C@H](NC(=O)N[C@H](C(=O)N[C@H]1/C=C/CCNC(=O)/C=C/[C@H](C(C)C)NC1=O)C(C)C)C(=O)NCCCCCNC(=O)c1ccc(-c2c3ccc(=[N+](C)C)cc-3oc3cc(N(C)C)ccc23)c(C(=O)[O-])c1 [Compound 2, SylA-Rhodamine]
Ki ([1]; read-out: caspase-like activity [Ki' value in nM], human erythrocyte 20S proteasomes, substrate Z-LLE-AMC, 37 °C, Ki' = apparent dissociation constant): > 50000 nM | Ki ([2]; read-out: tryptic activity [Ki' value in nM], human erythrocyte 20S proteasomes, substrate Boc-LRR-AMC, 37 °C, Ki' = apparent dissociation constant): > 100 nM | Ki ([3]; read-out: chymotryptic activity [Ki' value in nM], human erythrocyte 20S proteasomes, substrate Suc-LLVY-AMC 100 µM, 37 °C, Ki' = apparent dissociation constant): > 100 nM

COCCOCCNC(=O)[C@@H](NC(=O)N[C@H](C(=O)N[C@H]1/C=C/CCNC(=O)/C=C/[C@H](C(C)C)NC1=O)C(C)C)C(C)C [Compound 3, SylA-PEG1]
Ki [1]: > 100 nM | Ki [2]: 20 to 100 nM | Ki [3]: < 20 nM

CCCCCCCCCCNC(=O)N[C@H](C(=O)N[C@H]1/C=C/CCNC(=O)/C=C/[C@H](C(C)C)NC1=O)C(C)C [Compound 4, SylA-decanyl]
Ki [1]: > 100 nM | Ki [2]: 20 to 100 nM | Ki [3]: < 20 nM

COCCOCCOCCNC(=O)N[C@H](C(=O)N[C@H]1/C=C/CCNC(=O)/C=C/[C@H](C(C)C)NC1=O)C(C)C [Compound 5, SylA-PEG2]
Ki [1]: > 100 nM | Ki [2]: 20 to 100 nM | Ki [3]: < 20 nM
